Source: patent US10624875B2, “Methods and compositions for treating schizophrenia” (The Johns Hopkins University, priority 2012, dated 2020)

Tests used:
Type in all cases: in vivo, human
DG/CA3 = assay: fMRI activity during explicit 3-alternative forced choice task, DG/CA3; settings: aMCI subjects, 125 mg twice a day for two weeks, versus placebo
Experimental: (§1) A within-subjects trial of 8 weeks duration, involving 17 amnestic MCI (aMCI) subjects and 17 age-matched controls with a low dose treatment of levetiracetam is conducted. During the course of the study, each aMCI subject receives both drug and placebo treatments separately in two periods of two weeks each, with the order of treatments among different aMCI subjects counterbalanced (see FIG. 7). Age-matched control subjects treated with placebo serve as a further control. Cognitive testing and fMRI imaging data are obtained from the subjects after each two week period of drug/placebo treatment. As described above, the drug treatment period is the two weeks preceding Visit 1 or 2 (with the two week period preceding the other Visit being the placebo phase). […] Imaging data are obtained through high-resolution methods developed in the Stark laboratory. Data are collected on a Phillips 3 Tesla scanner (Eindhoven, The Netherlands) equipped with an 8-channel SENSE (Sensitivity Encoding) head coil, located at the F.M. Kirby Research Center for Functional Brain Imaging at the Kennedy Krieger Institute (Baltimore, Md.). […] Group data are analyzed using a two-way Analysis of Variance (ANOVA) with trial types and group as fixed factors, and subject as a random factor nested within group. […]

entorhinal cortex (EC) = assay: fMRI activity during explicit 3-alternative forced choice task, entorhinal cortex; settings: aMCI subjects, 125 mg twice a day for two weeks, versus placebo
Experimental: as §1

aMCI subjects [1] = assay: Buschke Selective Reminding Test - Delayed Recall; settings: 125 mg twice a day for two weeks
Experimental: (§2) A within-subjects trial of 8 weeks duration, involving 17 amnestic MCI (aMCI) subjects and 17 age-matched controls with a low dose treatment of levetiracetam is conducted. During the course of the study, each aMCI subject receives both drug and placebo treatments separately in two periods of two weeks each, with the order of treatments among different aMCI subjects counterbalanced (see FIG. 7). Age-matched control subjects treated with placebo serve as a further control. Cognitive testing and fMRI imaging data are obtained from the subjects after each two week period of drug/placebo treatment.
All participants undergo neuropsychological evaluation at the time of assessment for treatment efficacy (Visits 1 and 2), as well as at the Baseline Visit. The evaluation occurs outside of the scanner and includes the Buschke Selective Reminding Test (Buschke and Fuld, 1974) and the Verbal Paired Associates subtest, the Logical Memory subtest, the Visual Reproduction subtest of the Wechsler Memory Scale-Revised (WMS-R) (Wechsler, 1997), and the Benton Visual Retention Test, as these tasks are particularly sensitive to medial temporal lobe function and early memory problems (Marquis et al., 2002 and Masur et al., 1994). […]

aMCI subjects [2] = assay: Verbal Paired Associates Test - Delayed Recall; settings: 125 mg twice a day for two weeks
Experimental: as §2
All participants undergo neuropsychological evaluation at the time of assessment for treatment efficacy (Visits 1 and 2), as well as at the Baseline Visit. […]
As described above, the drug treatment period is the two weeks preceding Visit 1 or 2 (with the two week period preceding the other Visit being the placebo phase). For the subjects receiving the drug treatment, half a scored 250 mg tablet of levetiracetam is used to achieve a dose of […], which is approximately 3.6 mg/kg/day (assuming an average adult human weight of 70 kg).

## CC[C@@H](C(N)=O)N1CCCC1=O [levetiracetam, (2S)-2-(2-oxopyrrolidin-1-yl) butanamide]
DG/CA3
  DG/CA3 activity during lure stimuli correctly identified as similar: reduces DG/CA3 hyper-activity
Entorhinal cortex (EC)
  EC activity during memory judgments: increases EC activity
aMCI subjects [1]
  performance in Buschke Selective Reminding Test - Delayed Recall: fail to rescue performance
aMCI subjects [2]
  performance in Verbal Paired Associates Test - Delayed Recall: fail to rescue performance
